These are literature values, as cited in patent publication US20180369136A1, “DEVICES AND METHODS FOR TRANSDERMAL TREATMENT OF BASAL CELL CARCINOMA” (NORTH CAROLINA STATE UNIVERSITY, priority 2015, published 2018).

In data set [1] the test system is immunosuppressed syngeneic mice. Conditions: in vivo.
The next data set relates to yeast and bacteria cells. Conditions: in vitro.
Data set [2] deals with basal cell carcinoma tumor. Conditions: oral itraconazole.
In data set [3] the test system is Hedgehog signaling in basal cell carcinoma. The following applies: basal cell carcinoma in vitro model.

Regarding `O=c1[nH]cc(F)c(=O)[nH]1` [fluorouracil, 5-fluorouracil], the mutagenicity result in data set [1] is listed as “causes mutations”; with yeast and bacteria cells, “causes mutations”.

Turning to `CCC(C)n1ncn(-c2ccc(N3CCN(c4ccc(OCC5COC(Cn6cncn6)(c6ccc(Cl)cc6Cl)O5)cc4)CC3)cc2)c1=O` (stereo not drawn) [itraconazole], the side effects entry in data set [2] is on record as “grade 4 congestive heart failure”. The “solubility in ethanol and water” value (ethanol and water) is “poor solubility”.

For `C=C1CC[C@H](O)C/C1=C/C=C1\CCC[C@]2(C)[C@@H]([C@H](C)CCCC(C)C)CC[C@@H]12` [vitamin D3], the “solubility in aqueous media” value (aqueous media) is “does not readily dissolve”. Moreover, in data set [3], the Hedgehog signaling entry is reported as “suppress Hedgehog signaling”.
